The nature of assay [1]: Mouse acute food intake study. The class given is in vivo. Conditions: male C57Bl/6 mice, s.c., cumulative food intake at 24 hr vs vehicle. The method in brief:
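Single-housed male C57Bl/6 mice (8-9 weeks on arrival), chow-fed, acclimated and sham-dosed ≥2 times, were fasted 6-8 h, then given vehicle or peptide subcutaneously at 5 mL/kg 1-2 h before lights out. Food intake was recorded automatically over 48 h and analysed as cumulative intake.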

For a further assay, the system named is wildtype (WT) mice. Nature of the assay: Glucose change in wildtype mice. In kind it is in vivo, mouse. Conditions: s.c.; for WT % glucose change 120 min: 120 min vs 0 min; for WT % glucose change 60 min: 60 min vs 0 min. On the procedure:
(§1) GLP-1R knockout (KO) and wildtype (WT) mice at 8-14 weeks of age were singly housed on standard chow diet (Envigo, 2918) and automatic water. They acclimated for a minimum of ˜1-2 weeks, and mice were sorted into groups (n=4-8/group) based on body weight. On day of study, mice were fasted briefly for 2 hrs prior to study start. In some studies, mice were pre-treated with octreotide (BaChem, 10 mg/kg) at 30 minutes prior to peptide injection. Glucose was measured via glucometer at various timepoints including-30 min (prior to octreotide when used in studies), 0 min (before peptide dose), 30, 60, 120, 180, 240, and 360 minutes. Since these studies are acute in nature, mice were re-used for multiple studies (no more than 3) and always allowed at least a minimum wash-out period of 1 week.

In assay [2] the test system is GLP-1R knockout (KO) mice. As to the kind of experiment: Glucose change in GLP-1R knockout mice. In kind it is in vivo, mouse. Conditions: GLP-1R KO mice, s.c.; for GLP-1R KO % glucose change 120 min: 120 min vs 0 min; for GLP-1R KO % glucose change - 60 min: 60 min vs 0 min. On the procedure: as §1, with “They” for “GLP-1R knockout (KO) and wildtype (WT) mice at 8-14 weeks of age were singly housed on standard chow diet (Envigo, 2918) and automatic water. They”

The target of assay [3] is human glucagon receptor (hGCGR) (Homo sapiens, UniProt P47871). Nature of the assay: cAMP production (HTRF) in CHO cells expressing hGCGR. In kind it is cell-based. Details: expressed in transfected cells. Conditions: Table 6, peptides modified at position 17; cAMP in CHO hGCGR cells; geometric mean; read-out: hGluc-R EC50. In a few lines: (§2)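 Cells were resuspended in assay buffer at batch-optimized density, typically 1×10^5 cells/mL for hGLP-1R and 2×10^5 cells/mL for hGCGR. After 30 min incubation at room temperature with compound, cAMP was measured by two-step HTRF. EC50 values came from 4-parameter logistic fits of % Delta F.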

In assay [4] the target is human GLP-1 receptor (hGLP-1R) (Homo sapiens, UniProt P43220). Nature of the assay: cAMP production (HTRF) in CHO cells expressing hGLP-1R. In kind it is cell-based. More on the design: expressed in transfected cells. The note with it: for EC50: Table 6, peptides modified at position 17, cAMP in CHO hGLP-1R cells, geometric mean, read-out: hGLP-1R EC50; for % Relative Potency Ratio: Table 6, % GLP-1R activity relative to GLP-1 / % GlucR activity relative to glucagon. In a few lines: as §2
(In general: Changes in cAMP serve as a functional read-out for many G protein-coupled receptors.)

Where [5] appears, read: 10 nmol/kg, somatostatin pretreatment (octreotide) 30 min prior to cpd.
The mark [6] stands for this setting: 30 nmol/kg, somatostatin pretreatment (octreotide) 30 min prior to cpd.
Setting [7] is: 3 nmol/kg, no somatostatin pretreatment.
Where [8] appears, read: 10 nmol/kg, no somatostatin pretreatment.
Where [9] appears, read: 30 nmol/kg, no somatostatin pretreatment.

The structures appear in SMILES notation. Values joined by “and” are separate entries in the source; they are usually repeats but may differ in a detail not shown here. Identical values can stand only once. Starred links: 1 amine or outer side, 2 acyl side, 3 side chain; linkers in the order of their positions; H or OH if unused. Non-standard residues stand in square brackets, D forms with d. Residues, ends and D or L forms follow the SMILES beside them. Groups on a side chain read outwards from the residue. *: point of attachment. Dip = N[C@H](C(=O)O)C(c1ccccc1)c1ccccc1; γGlu = O=C(O)[C@H](CCC(=O)[*:2])N[*:1]; Stearoyl = CCCCCCCCCCCCCCCCCC(=O)*; αMeF = C[C@](N)(Cc1ccccc1)C(=O)O; Myristoyl = CCCCCCCCCCCCCC(=O)*; Nle = CCCC[C@H](N)C(=O)O; PEG2 = NCCOCCOCCC(=O)O; Aib = CC(C)(N)C(=O)O

Sequence of human GLP-1 receptor (hGLP-1R) (P43220 24-463): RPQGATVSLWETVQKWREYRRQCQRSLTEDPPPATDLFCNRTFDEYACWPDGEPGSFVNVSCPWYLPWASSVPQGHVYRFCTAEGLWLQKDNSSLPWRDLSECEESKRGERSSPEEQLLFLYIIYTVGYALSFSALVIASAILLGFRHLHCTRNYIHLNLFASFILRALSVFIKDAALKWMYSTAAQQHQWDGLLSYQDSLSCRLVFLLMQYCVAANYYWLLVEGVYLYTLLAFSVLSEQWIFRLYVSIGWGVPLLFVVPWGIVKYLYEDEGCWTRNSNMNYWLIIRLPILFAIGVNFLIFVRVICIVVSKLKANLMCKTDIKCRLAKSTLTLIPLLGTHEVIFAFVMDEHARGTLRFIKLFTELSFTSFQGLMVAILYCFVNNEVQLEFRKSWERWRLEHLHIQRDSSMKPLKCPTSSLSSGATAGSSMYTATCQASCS
Sequence of human glucagon receptor (hGCGR) (P47871 26-477): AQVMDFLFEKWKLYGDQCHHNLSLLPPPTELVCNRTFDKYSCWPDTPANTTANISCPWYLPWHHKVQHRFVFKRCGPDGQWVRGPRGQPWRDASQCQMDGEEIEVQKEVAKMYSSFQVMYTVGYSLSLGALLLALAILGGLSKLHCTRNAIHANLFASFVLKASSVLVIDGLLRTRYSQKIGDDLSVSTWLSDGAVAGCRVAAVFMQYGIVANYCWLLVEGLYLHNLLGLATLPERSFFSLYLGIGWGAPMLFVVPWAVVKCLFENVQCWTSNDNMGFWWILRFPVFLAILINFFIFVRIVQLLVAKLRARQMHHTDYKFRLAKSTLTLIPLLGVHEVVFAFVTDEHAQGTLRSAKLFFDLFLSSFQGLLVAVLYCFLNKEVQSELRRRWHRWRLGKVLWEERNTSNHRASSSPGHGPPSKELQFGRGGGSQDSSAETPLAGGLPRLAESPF

As for `CCCCCCCCCCCCCC(=O)N[C@@H](CCC(=O)N[C@@H](CCC(=O)NCCOCCOCCC(=O)NCCOCCOCCC(=O)NCCCC[C@H](NC(=O)[C@H](CO)NC(=O)[C@H](CC(=O)O)NC(=O)[C@H](CC(C)C)NC(=O)[C@@H](NC(=O)[C@H](CCCCN)NC(=O)[C@H](CO)NC(=O)[C@@H](NC(=O)[C@H](CC(=O)O)NC(=O)[C@H](CO)NC(=O)[C@@H](NC(=O)[C@](C)(Cc1ccccc1)NC(=O)[C@H](CO)NC(=O)CNC(=O)[C@H](CCC(N)=O)NC(=O)[C@H](CO)NC(=O)[C@@H](N)Cc1c[nH]cn1)[C@@H](C)O)C(C)C)C(c1ccccc1)c1ccccc1)C(=O)N[C@@H](C)C(=O)N[C@@H](C)C(=O)N[C@@H](CCC(N)=O)C(=O)N[C@@H](CC(=O)O)C(=O)N[C@@](C)(Cc1ccccc1)C(=O)N[C@H](C(=O)N[C@@H](CCC(=O)O)C(=O)NC(C)(C)C(=O)N[C@H](C(=O)N[C@H](C(=O)N[C@@H](CC(N)=O)C(=O)N[C@H](C(N)=O)[C@@H](C)O)[C@@H](C)CC)[C@@H](C)CC)C(C)C)C(=O)O)C(=O)O` [Peptide 63] (H-HSQGS[αMeF]TSDVSK[Dip]LDSK([PEG2-PEG2-γGlu-γGlu-Myristoyl])AAQD[αMeF]VE[Aib]IINT-NH2; N-terminus assumed), in assay [1] (dose 10 nmol/kg), the “24 hr % Vehicle Food Intake” value turned out to be 37.9%. The “WT % glucose change 120 min” value was −26.4% in the assay on wildtype (WT) mice (setting [5]) and −23.8% in the assay with wildtype (WT) mice (setting [6]). Also, the “GLP-1R KO % glucose change 120 min” value in assay [2] (setting [5]) is on record as 68.2%; in assay [2] (setting [6]), 113.0%. Moreover, the values for the EC50 in assay [3] and in assay [4] were 2.49 pM and 3.14 pM, respectively. Also, the “% Relative Potency Ratio” value in assay [4] was 1.6.

Take `CCCCCCCCCCCCCCCCCC(=O)N[C@@H](CCC(=O)N[C@@H](CCC(=O)NCCOCCOCCC(=O)NCCOCCOCCC(=O)NCCCC[C@H](NC(=O)[C@H](CO)NC(=O)[C@H](CC(=O)O)NC(=O)[C@H](CC(C)C)NC(=O)[C@](C)(Cc1ccccc1)NC(=O)[C@H](CCCCN)NC(=O)[C@H](CO)NC(=O)[C@@H](NC(=O)[C@H](CC(=O)O)NC(=O)[C@H](CO)NC(=O)[C@@H](NC(=O)[C@H](Cc1ccccc1)NC(=O)[C@@H](NC(=O)CNC(=O)[C@H](CCC(N)=O)NC(=O)C(C)(C)NC(=O)[C@@H](N)Cc1c[nH]cn1)[C@@H](C)O)[C@@H](C)O)C(C)C)C(=O)N[C@@H](CCCNC(=N)N)C(=O)N[C@@H](C)C(=O)N[C@@H](CCC(N)=O)C(=O)N[C@@H](CC(=O)O)C(=O)N[C@@](C)(Cc1ccccc1)C(=O)N[C@H](C(=O)N[C@@H](CCC(N)=O)C(=O)NC(C)(C)C(=O)N[C@@H](CC(C)C)C(=O)N[C@@H](CCCC)C(=O)N[C@@H](CCC(=O)O)C(=O)N[C@H](C(N)=O)[C@@H](C)O)C(C)C)C(=O)O)C(=O)O` [Peptide 69] (H-H[Aib]QGTFTSDVSK[αMeF]LDSK([PEG2-PEG2-γGlu-γGlu-Stearoyl])RAQD[αMeF]VQ[Aib]L[Nle]ET-NH2; N-terminus assumed): in assay [1] (dose 10 nmol/kg), the “24 hr % Vehicle Food Intake” value is reported as 74.3%. The “WT % glucose change 120 min” value in the assay with wildtype (WT) mice (setting [7]) was −27.2%. In assay [2] (setting [7]), the “GLP-1R KO % glucose change 120 min” value was 17.6%. The “% Relative Potency Ratio” value in assay [4] is 11.1.

For the compound `CCCCCCCCCCCCCCCCCC(=O)N[C@@H](CCC(=O)N[C@@H](CCC(=O)NCCOCCOCCC(=O)NCCOCCOCCC(=O)NCCCC[C@H](NC(=O)[C@H](CO)NC(=O)[C@H](CC(=O)O)NC(=O)[C@H](CC(C)C)NC(=O)C(C)(C)NC(=O)[C@H](CCCCN)NC(=O)[C@H](CO)NC(=O)[C@@H](NC(=O)[C@H](CC(=O)O)NC(=O)[C@H](CO)NC(=O)[C@@H](NC(=O)[C@](C)(Cc1ccccc1)NC(=O)[C@H](CO)NC(=O)CNC(=O)[C@H](CCC(N)=O)NC(=O)[C@H](CO)NC(=O)[C@@H](N)Cc1c[nH]cn1)[C@@H](C)O)C(C)C)C(=O)N[C@@H](C)C(=O)N[C@@H](C)C(=O)N[C@@H](CCC(N)=O)C(=O)N[C@@H](CC(=O)O)C(=O)N[C@@](C)(Cc1ccccc1)C(=O)N[C@H](C(=O)N[C@@H](CCC(N)=O)C(=O)NC(C)(C)C(=O)N[C@H](C(=O)N[C@@H](C)C(=O)N[C@@H](CC(N)=O)C(N)=O)[C@@H](C)CC)C(C)C)C(=O)O)C(=O)O` [Peptide 97] (H-HSQGS[αMeF]TSDVSK[Aib]LDSK([PEG2-PEG2-γGlu-γGlu-Stearoyl])AAQD[αMeF]VQ[Aib]IAN-NH2; N-terminus assumed), the “WT % glucose change 120 min” value in the assay on wildtype (WT) mice (setting [5]) was −41.9%; in the assay on wildtype (WT) mice (setting [6]) it was −14.7%. Further, the entries for the “GLP-1R KO % glucose change 120 min” value in assay [2] (setting [5]) and in assay [2] (setting [6]) were 91.1% and 150.8%, respectively. Besides, the EC50 (as a rule, the concentration at which the effect is half-maximal) in assay [3] worked out at 13 pM; in assay [4], 1.05 pM. For the same compound, the “% Relative Potency Ratio” value in assay [4] worked out at 24.3.

In the case of `CC(C)C[C@H](NC(=O)[C@H](Cc1c[nH]c2ccccc12)NC(=O)[C@H](CCC(N)=O)NC(=O)[C@@H](NC(=O)[C@H](Cc1ccccc1)NC(=O)[C@H](CC(=O)O)NC(=O)[C@H](CCCNC(=N)N)NC(=O)[C@H](C)NC(=O)[C@H](CCCNC(=N)N)NC(=O)[C@H](CCCCNC(=O)COCCOCCNC(=O)COCCOCCNC(=O)CC[C@H](NC(=O)CCCCCCCCCCCCCCCCCCC(=O)O)C(=O)O)NC(=O)[C@@H](NC(=O)[C@H](CC(=O)O)NC(=O)[C@H](CC(C)C)NC(=O)[C@](C)(Cc1ccccc1)NC(=O)[C@H](CCCCN)NC(=O)[C@H](CO)NC(=O)[C@@H](NC(=O)[C@H](CC(=O)O)NC(=O)[C@H](CO)NC(=O)[C@@H](NC(=O)[C@H](Cc1ccccc1)NC(=O)[C@@H](NC(=O)CNC(=O)[C@H](CCC(N)=O)NC(=O)C(C)(C)NC(=O)[C@@H](N)Cc1c[nH]cn1)[C@@H](C)O)[C@@H](C)O)C(C)C)[C@@H](C)O)C(C)C)C(=O)N[C@@H](CC(C)C)C(=O)N[C@@H](CCC(=O)O)C(=O)NC(C)(C)C(=O)NCC(=O)O` [Peptide 195, H-Aib-Q-G-T-F-T-S-D-V—S-K-αMePhe-L-D-T-K-R-A-R-D-F-V-Q-W-L-L-E-Aib-G-acid], the “24 hr % Vehicle Food Intake” value is 102.1% in assay [1] (dose 1 nmol/kg); 84.0% in assay [1] (dose 3 nmol/kg); 58.2% and 49.9% in assay [1] (dose 10 nmol/kg). Moreover, the “WT % glucose change 60 min” value is 1.4% in the assay with wildtype (WT) mice (setting [8]) and −17.0% in the assay on wildtype (WT) mice (setting [9]). Moreover, the “GLP-1R KO % glucose change - 60 min” value in assay [2] (setting [8]) is recorded as 35.3%; in assay [2] (setting [9]) it was 48.0%.

For the origin of these results see patent publication US20250353891A1 (MEDIMMUNE LIMITED, priority 2022, published 2025).
